Source: patent US20100136541A1, “IDENTIFICATION AND VERIFICATION OF METHYLATION MARKER SEQUENCES” (Siemens Healthcare Diagnostics Inc., priority 2003, published 2010)

Test system: CA4 CpG sites
Test: Bisulfite sequencing of CpG sites, cell lines treated vs. untreated
Assay type: cell-based, human
Set-up: unit not given here
Procedure: Samples: Paired tumor and adjacent normal tissues from twelve colorectal cancer patients were collected under institutional review board (IRB) approval with patient consent. Tissues were flash frozen in LN2 and stored at −80° C. prior to DNA extraction. All tissues were blinded. Cell lines: A panel of five colorectal cancer cell lines was used. Cells were grown to ˜50% confluence in the appropriate culture medium prior to treatment with 5-aza-2′-deoxycytidine. Optimal concentrations and incubation times (Table 4) were determined by assaying for reduction of p16 promoter methylation using MSP. Cells were harvested, pelleted by centrifugation, and washed twice in Hanks buffered saline solution. Cell pellets were stored at −80° C. Control cells were maintained simultaneously without 5-aza-2′-deoxycytidine treatment. DNA extraction: DNA was purified from tissues and cell lines using the QIAGEN DNeasy® Tissue Kit. Approximately 25-35 mg of each tissue was pulverized under liquid nitrogen before extraction. Elution volume for tissues was 2004. A final volume of […] of cell line DNA was extracted from 15 to 254 of each packed cell pellet (between 10^6-10^7 cells). Purified DNA was stored at −20° C. Bisulfite modification: Modification was performed according to the Frommer method (See Frommer M, et al., PNAS, 89: 1827-1831 (1992).) One μg genomic DNA was diluted into 50 μl with distilled H2O, 5.5 μl of 2M NaOH was added, and the mixture incubated at 37° C. for 10 minutes (to create single stranded DNA). Thirty μl of freshly prepared 10 mM hydroquinone (Sigma) was added to each tube. Five hundred twenty μl of freshly prepared 3M sodium bisulfite (Sigma S-8890), pH 5.0 was then added. Reagents were thoroughly mixed and then covered with mineral oil and incubated at 50° C. for 16 hours. After removing the oil, 1 ml of Wizard DNA Cleanup Resin (Promega A7280) was added to each tube prior to applying the mixture to miniprep column in the DNA Wizard Cleanup kit. The column was washed with 2 ml of 80% isopropanol, and eluted with 50 μl of heated water (60-70° C.). 5.5 μl of 3 M NaOH to was added to each tube, and incubated at room temperature for 5 minutes. Then 1 μl glycogen was added as carrier, 33 μl of 10 M NH4Ac, and 3 volumes of ethanol for DNA precipitation. The pellet was spun down and washed with 70% ethanol, dried and resuspended in 20 μl water. In some instances, the EZ DNA Methylation Kit (Zymo Research) which uses a simplified version of the Frommer method was used. In these cases, 1 μg of genomic DNA was denatured in 0.3M NaOH for 15 minutes at 37° C. followed by incubation at 50° C. for 16 hours in 0.5 mM hydroquinone and a saturated solution of sodium bisulfite at pH 5. Modified DNA was bound to the Zymo column membrane, then desulfonated with 0.3M NaOH for 15 minutes at room temperature. DNA was washed and resuspended with 50 μL 10 mM Tris-HCl-0.1 mM EDTA, pH 7.5 and stored at −20° C. The bisulfite reaction results in conversion of an unmethylated cytosine to uracil. Methylated cytosine remains unchanged after the bisulfite reaction. The resulting bisulfite modified DNA is single stranded. PCR amplification for sequencing: Primers were designed to amplify both methylated and unmethylated fragments of DNA (Table 5). Five μL of modified DNA ( 1/10 of modification reaction) was amplified first in a 254, reaction volume containing 10 mM Tris-HCl pH8.3, 50 mM KCl, 1.5 mM to 2 mM MgCl2, (Applied Biosystems), 0.25 mM each dNTP, 0.5 unit AmpliTaq (Applied Biosystems), and sequencing primers (each at 200 nM). Cycling conditions were 10 minutes at 95° C., 40 cycles of 30 seconds at 95° C., 30 seconds at 54-62° C., 30 seconds at 72° C., subsequently followed by extension for 5 minutes at 72° C.
Reaction products were purified either by the shrimp-alkaline phosphatase-Exol standard method or on the Qiagen Qiaquick PCR clean-up column and eluted in 30 μL 10 mM Tris-HCl, pH8.5. […]

SMILES: Nc1ncn([C@H]2C[C@H](O)[C@@H](CO)O2)c(=O)n1 [5-aza-2′-deoxycytidine]
- CA4 sequencing result (methylation) at CpG site #6 (HT-29 treated): 47
- CA4 sequencing result (methylation) at CpG site #35 (HT-29 treated): 96
- CA4 sequencing result (methylation) at CpG site #43 (HT-29 treated): 77
- CA4 sequencing result (methylation) at CpG site #52 (HT-29 treated): 92
- CA4 sequencing result (methylation) at CpG site #104 (HT-29 treated): 50
- CA4 sequencing result (methylation) at CpG site #120 (HT-29 treated): 67
- CA4 sequencing result (methylation) at CpG site #127 (HT-29 treated): 74
- CA4 sequencing result (methylation) at CpG site #129 (HT-29 treated): 87
- CA4 sequencing result (methylation) at CpG site #140 (HT-29 treated): 84
- CA4 sequencing result (methylation) at CpG site #153 (HT-29 treated): 83
- CA4 sequencing result (methylation) at CpG site #156 (HT-29 treated): 72
- CA4 sequencing result (methylation) at CpG site #158 (HT-29 treated): 87
- CA4 sequencing result (methylation) at CpG site #164 (HT-29 treated): 87
- CA4 sequencing result (methylation) at CpG site #181 (HT-29 treated): 73
- CA4 sequencing result (methylation) at CpG site #190 (HT-29 treated): 68
- CA4 sequencing result (methylation) at CpG site #199 (HT-29 treated): 92
- CA4 sequencing result (methylation) at CpG site #201 (HT-29 treated): 100
- CA4 sequencing result (methylation) at CpG site #204 (HT-29 treated): 94
- CA4 sequencing result (methylation) at CpG site #213 (HT-29 treated): 91
- CA4 sequencing result (methylation) at CpG site #218 (HT-29 treated): 65
- CA4 sequencing result (methylation) at CpG site #220 (HT-29 treated): 79
- CA4 sequencing result (methylation) at CpG site #227 (HT-29 treated): 47
- CA4 sequencing result (methylation) at CpG site #6 (LS123 treated): 75
- CA4 sequencing result (methylation) at CpG site #35 (LS123 treated): 39
- CA4 sequencing result (methylation) at CpG site #43 (LS123 treated): 62
- CA4 sequencing result (methylation) at CpG site #52 (LS123 treated): 69
- CA4 sequencing result (methylation) at CpG site #104 (LS123 treated): 16
- CA4 sequencing result (methylation) at CpG site #120 (LS123 treated): 27
- CA4 sequencing result (methylation) at CpG site #127 (LS123 treated): 70
- CA4 sequencing result (methylation) at CpG site #129 (LS123 treated): 46
- CA4 sequencing result (methylation) at CpG site #140 (LS123 treated): 62
- CA4 sequencing result (methylation) at CpG site #153 (LS123 treated): 43
- CA4 sequencing result (methylation) at CpG site #156 (LS123 treated): 40
- CA4 sequencing result (methylation) at CpG site #158 (LS123 treated): 22
- CA4 sequencing result (methylation) at CpG site #164 (LS123 treated): 62
- CA4 sequencing result (methylation) at CpG site #181 (LS123 treated): 18
- CA4 sequencing result (methylation) at CpG site #190 (LS123 treated): 11
- CA4 sequencing result (methylation) at CpG site #199 (LS123 treated): 17
- CA4 sequencing result (methylation) at CpG site #201 (LS123 treated): 33
- CA4 sequencing result (methylation) at CpG site #204 (LS123 treated): 20
- CA4 sequencing result (methylation) at CpG site #213 (LS123 treated): 29
- CA4 sequencing result (methylation) at CpG site #218 (LS123 treated): 24
- CA4 sequencing result (methylation) at CpG site #220 (LS123 treated): 20
- CA4 sequencing result (methylation) at CpG site #227 (LS123 treated): 11
- CA4 sequencing result (methylation) at CpG site #6 (LS174T treated): 93
- CA4 sequencing result (methylation) at CpG site #35 (LS174T treated): 35
- CA4 sequencing result (methylation) at CpG site #43 (LS174T treated): 39
- CA4 sequencing result (methylation) at CpG site #52 (LS174T treated): 40
- CA4 sequencing result (methylation) at CpG site #104 (LS174T treated): 18
- CA4 sequencing result (methylation) at CpG site #120 (LS174T treated): 22
- CA4 sequencing result (methylation) at CpG site #127 (LS174T treated): 19
- CA4 sequencing result (methylation) at CpG site #129 (LS174T treated): 62
- CA4 sequencing result (methylation) at CpG site #140 (LS174T treated): 28
- CA4 sequencing result (methylation) at CpG site #153 (LS174T treated): 23
- CA4 sequencing result (methylation) at CpG site #156 (LS174T treated): 32
- CA4 sequencing result (methylation) at CpG site #158 (LS174T treated): 10
- CA4 sequencing result (methylation) at CpG site #164 (LS174T treated): 41
- CA4 sequencing result (methylation) at CpG site #181 (LS174T treated): 22
- CA4 sequencing result (methylation) at CpG site #190 (LS174T treated): 61
- CA4 sequencing result (methylation) at CpG site #199 (LS174T treated): 10
- CA4 sequencing result (methylation) at CpG site #201 (LS174T treated): 67
- CA4 sequencing result (methylation) at CpG site #204 (LS174T treated): 3
- CA4 sequencing result (methylation) at CpG site #213 (LS174T treated): 56
- CA4 sequencing result (methylation) at CpG site #218 (LS174T treated): 64
- CA4 sequencing result (methylation) at CpG site #220 (LS174T treated): 45
- CA4 sequencing result (methylation) at CpG site #227 (LS174T treated): 27
- CA4 sequencing result (methylation) at CpG site #6 (SW480 treated): 70
- CA4 sequencing result (methylation) at CpG site #35 (SW480 treated): 61
- CA4 sequencing result (methylation) at CpG site #43 (SW480 treated): 57
- CA4 sequencing result (methylation) at CpG site #52 (SW480 treated): 73
- CA4 sequencing result (methylation) at CpG site #104 (SW480 treated): 13
- CA4 sequencing result (methylation) at CpG site #120 (SW480 treated): 52
- CA4 sequencing result (methylation) at CpG site #127 (SW480 treated): 44
- CA4 sequencing result (methylation) at CpG site #129 (SW480 treated): 18
- CA4 sequencing result (methylation) at CpG site #140 (SW480 treated): 14
- CA4 sequencing result (methylation) at CpG site #153 (SW480 treated): 17
- CA4 sequencing result (methylation) at CpG site #156 (SW480 treated): 53
- CA4 sequencing result (methylation) at CpG site #158 (SW480 treated): 7
- CA4 sequencing result (methylation) at CpG site #164 (SW480 treated): 66
- CA4 sequencing result (methylation) at CpG site #181 (SW480 treated): 27
- CA4 sequencing result (methylation) at CpG site #190 (SW480 treated): 57
- CA4 sequencing result (methylation) at CpG site #199 (SW480 treated): 28
- CA4 sequencing result (methylation) at CpG site #201 (SW480 treated): 56
- CA4 sequencing result (methylation) at CpG site #204 (SW480 treated): 27
- CA4 sequencing result (methylation) at CpG site #213 (SW480 treated): 51
- CA4 sequencing result (methylation) at CpG site #218 (SW480 treated): 35
- CA4 sequencing result (methylation) at CpG site #220 (SW480 treated): 32
- CA4 sequencing result (methylation) at CpG site #227 (SW480 treated): 23
- CA4 sequencing result (methylation) at CpG site #6 (SW620 treated): 64
- CA4 sequencing result (methylation) at CpG site #35 (SW620 treated): 89
- CA4 sequencing result (methylation) at CpG site #43 (SW620 treated): 81
- CA4 sequencing result (methylation) at CpG site #52 (SW620 treated): 77
- CA4 sequencing result (methylation) at CpG site #104 (SW620 treated): 33
- CA4 sequencing result (methylation) at CpG site #120 (SW620 treated): 74
- CA4 sequencing result (methylation) at CpG site #127 (SW620 treated): 67
- CA4 sequencing result (methylation) at CpG site #129 (SW620 treated): 80
- CA4 sequencing result (methylation) at CpG site #140 (SW620 treated): 78
- CA4 sequencing result (methylation) at CpG site #153 (SW620 treated): 60
- CA4 sequencing result (methylation) at CpG site #156 (SW620 treated): 69
- CA4 sequencing result (methylation) at CpG site #158 (SW620 treated): 73
- CA4 sequencing result (methylation) at CpG site #164 (SW620 treated): 92
- CA4 sequencing result (methylation) at CpG site #181 (SW620 treated): 43
- CA4 sequencing result (methylation) at CpG site #190 (SW620 treated): 46
- CA4 sequencing result (methylation) at CpG site #199 (SW620 treated): 10
- CA4 sequencing result (methylation) at CpG site #201 (SW620 treated): 96
- CA4 sequencing result (methylation) at CpG site #204 (SW620 treated): 100
- CA4 sequencing result (methylation) at CpG site #213 (SW620 treated): 96
- CA4 sequencing result (methylation) at CpG site #218 (SW620 treated): 91
- CA4 sequencing result (methylation) at CpG site #220 (SW620 treated): 93
- CA4 sequencing result (methylation) at CpG site #227 (SW620 treated): 37
